Legend:
Format in all cases: cell-based
human CCR5 gene = test: T7E1 endonuclease assay of CCR5 PCR product after electroporation of S. aureus Cas9 plasmid and gRNA STITCHR product into K562 cells; settings: 750 ng S. aureus Cas9 plasmid DNA and 250 ng STITCHR product, 48 and 72 hours after electroporation
Source text: To identify gRNAs that efficiently target disruption of the human CCR5 gene, eleven gRNAs were selected from a larger list of gRNAs obtained from in silico prediction of gRNAs with S. aureus specific PAM sequences. In silico predicted gRNAs were tiered according to the strategy described in Section 8. An abbreviated list of eleven gRNAs with the lowest predictive off-target scores were selected for subsequent screening experiments, based on proximity to the naturally occurring de1ta32 mutation in CCR5 that has been associated with resistance to HIV. The target-specific complementary region of the selected list of eleven gRNAs are depicted in Table 15.
A DNA plasmid encoding an S. aureus expression cassette (AF002) and a gRNA-specific STITCHR product, which is a DNA molecule consisting of a U6 promoter driving expression of the chimeric gRNA (i.e., a target-specific complementary sequence and the S. aureus gRNA scaffold), were electroporated into K562 cells using the Amaxa Nucleofector system and the program and protocol for K562 cells per the manufacturer's instructions. In brief, 750 ng S. aureus Cas9 plasmid DNA and 250 ng of STITCHR product were used for each gRNA. […]

CCR5 locus [1] = test: T7E1 analysis of gene disruption at CCR5 after Cas9 RNP electroporation of primary human T lymphocytes; settings: human CD4+ T lymphocytes, WT Cas9 RNP, 5 μg each RNP per 200,000 cells, 72 hours after electroporation
Source text: While transplantation of autologous CD34^+ HSCs genetically modified to prevent expression of the wild-type CXCR4 or the CCR5 would provide a long-term cure to HIV infection, the myeloablative conditioning associated with HSC transplantation destroys host adaptive immunity […] until the T cell pool is reconstituted after HSC engraftment is acheived, which can take several months. This delay in adaptive immune reconstitution puts patients at risk for the development of opportunistic infections during the acute phase of early engraftment following HSC transplantation. […] In this Example, single and multiplex genome editing in human T lymphocytes after electroporation of Cas9 RNP targeting the CXCR4 locus, the CCR5 locus, or both simultaneously (multiplexing) was evaluated after electroporation of CXCR4 and CCR5 gRNAs that were in vitro transcribed and modified to have an ARCA cap at the 5′ end and a polyA (20A) tail at the 3′ end. […] Table 16 depicts experimental design associated with Example 9 to evaluate gene editing as determined by T7E1 endonuclease assay analysis of the CXCR4 and CCR5 loci after electroporation of primary human T lymphocytes with S. aureus and/or S. pyogenes RNPs. […]

CCR5 locus [2] = test: T7E1 endonuclease assay at CCR5 after Cas9 RNP electroporation of human cord blood CD34+ HSCs; settings: human CB CD34+ HSCs, WT Cas9 RNP, 5 μg each per 200,000 cells, 72 hours after electroporation
Source text: Transplantation of autologous CD34^+ hematopoietic stem cells (HSCs, also known as hematopoietic stem/progenitor cells or HSPCs) that have been edited to disrupt expression of CXCR4 or CCR5 gene products would prevent entry of the HIV virus HSC progeny that are normally susceptible to HIV infection (e.g., macrophages and CD4 T lymphocytes). Multiplex genome editing with the Cas9 RNP complexed to modified gRNAs precisely alters more than one endogenous gene targets by creating indels at two different cut sites can lead to knock down of gene expression at multiple edited loci. In this Example, single target and multiplex genome editing was evaluated in human umbilical cord blood (CB) CD34^+ cells after electroporation of wild-type S. pyogenes Cas9, wild-type S. aureus Cas9 or D10A nickase. Briefly, Cas9 protein was complexed with modified sgRNAs targeting CXCR4 or CCR5. […] Seventy-two hours after electroporation of RNP with the Amaxa nucleofector system, CD34^+ HSCs were collected, gDNA isolated and CXCR4 and CCR5 PCR products analyzed by T7E1 endonuclease assay to evaluate targeted disruption of these HIV co-receptors (Table 19). Table 19 depicts experimental design associated with Example 10 to evaluate gene editing determined by T7E1 endonuclease assay analysis of the at CXCR4 and CCR5 loci after electroporation of primary human CD34^+ HSCs with S. aureus and/or S. pyogenes RNPs.

CCR5_Sa3: S. aureus gRNA targeting CCR5; GUGGUGACAAGUGUGAUCAC (SEQ ID NO: 488) (RNA, backbone not given here; in vitro transcribed gRNA with scaffold, 5' ARCA cap, 3' polyA (20A) tail)
indels in CCR5 (human CCR5 gene): about 39% | % editing at CCR5 (CCR5 locus [1]): 1.98% | % editing at CCR5 (CCR5 locus [2]): 0.44%

From patent publication US20180119123A1, “CRISPR/CAS-RELATED METHODS AND COMPOSITIONS FOR TREATING HIV INFECTION AND AIDS” (EDITAS MEDICINE, INC., priority 2015, published 2018)
